From patent US20140148464A1, “SALT FORMS OF FATTY ACIDS FOR THE TREATMENT OF DRY EYE” (Thetis Pharmaceuticals LLC, priority 2012, published 2014)
Where a name gives a salt, the structure may show the parent alone. Read-outs that look alike come from different tables or passages of the source.

Assay: Rat oral pharmacokinetics (plasma eicosapentaenoic acid after oral gavage)
Format: in vivo
Conditions: Sprague-Dawley rats, oral gavage 40 mg/kg in 0.5% carboxymethyl cellulose, analyte EPA in plasma, mean of 6 rats
Description: Oral pharmacokinetic parameters of piperazine di-eicosapentaenoate, prepared by the procedure described in Example 2, were determined in Sprague-Dawley rats. Piperazine di-eicosapentaenoate was administered by oral gavage as an aqueous solution in 0.5% carboxymethyl cellulose to 6 Sprague-Dawley rats, 3 males and 3 females. Rats were dosed at 40 mg/kg. Blood samples were obtained from each rat by jugular vein catheter. […] Blood samples were centrifuged to separate red blood cells and the resulting plasma samples were analyzed for eicosapentaenoic acid. Calculated pharmacokinetic parameters shown below in Table 1 are mean values from 6 rats. […] Rats were dosed at 40 mg/kg. Blood samples were obtained from each rat by jugular vein catheter. […] Blood samples were centrifuged to separate red blood cells and the resulting plasma samples were analyzed for eicosapentaenoic acid. Calculated pharmacokinetic parameters shown below (Table 2) are mean values from 6 rats.

Compound | AUC (0-24) (0-24 h) | Cmax | Tmax | AUC(0-t) (both sexes, rat, 0-24 h) | Cmax (both sexes, rat, read-out: Cmax) | Tmax (both sexes, rat, read-out: Tmax)
CC/C=C\C/C=C\C/C=C\C/C=C\C/C=C\CCCC(=O)O.CC/C=C\C/C=C\C/C=C\C/C=C\C/C=C\CCCC(=O)O.NCCN [Ethylene diamine di-eicosapentaenoate, Ethane-1,2-diaminium di[(5Z,8Z,11Z,14Z,17Z)-icosa-5,8,11,14,17-pentaenoate]] | 275.29 µg·h/mL | 18370 ng/mL | 2.0 h |  |  | 
CC/C=C\C/C=C\C/C=C\C/C=C\C/C=C\CCCC(=O)O [Piperazine di-eicosapentaenoate, Bis[(5Z,8Z,11Z,14Z,17Z)-icosa-5,8,11,14,17-pentaenoatel Piperazine Salt] |  |  |  | 135 µg·h/mL | 28200 ng/mL | 1 h
